Measured values published in ChEMBL document CHEMBL3046436, “Effects of 1,3-dichloropropene as a methyl bromide alternative for management of nematode, soil-borne disease, and weed in ginger (Zingiber officinale) crops in China” (2012).
Activity calls are given as the source filed them. The rule behind the calls is not given here.

Experiments:
[1] = system: Zingiber officinale; experiment: Increase in marketable fruit yield in Zingiber officinale (ginger) plants at 90 L/ha applied through fumigation protocol (reference value: 48.2 ton/ha); assay type: functional
[2] = system: Zingiber officinale; experiment: Increase in marketable fruit yield in Zingiber officinale (ginger) plants at 120 L/ha applied through fumigation protocol (reference value: 48.2 ton/ha); assay type: functional
[3] = system: Zingiber officinale; experiment: Increase in marketable fruit yield in Zingiber officinale (ginger) plants at 180 L/ha applied through fumigation protocol (reference value: 48.2 ton/ha); assay type: functional
[4] = system: Zingiber officinale; experiment: Increase in medium fruit yield in Zingiber officinale (ginger) plants at 90 L/ha applied through fumigation protocol (reference value: 24.6 ton/ha); assay type: functional
[5] = system: Meloidogyne incognita; experiment: Nematicidal activity against Meloidogyne incognita (root-knot nematode) in ginger crop fields assessed as root galling index at 90 L/ha measured after 60 days post compound application (reference value: 5.49 root galling index); assay type: functional
[6] = system: Meloidogyne incognita; experiment: Nematicidal activity against Meloidogyne incognita (root-knot nematode) in ginger crop fields assessed as root galling index at 120 L/ha measured after 60 days post compound application (reference value: 5.49 root galling index); assay type: functional
[7] = system: Meloidogyne incognita; experiment: Nematicidal activity against Meloidogyne incognita (root-knot nematode) in ginger crop fields assessed as root galling index at 180 L/ha measured after 60 days post compound application (reference value: 5.49 root galling index); assay type: functional
[8] = system: Meloidogyne incognita; experiment: Nematicidal activity against Meloidogyne incognita (root-knot nematode) in ginger crop fields assessed as number of nematodes per 100 cm3 soil at 90 L/ha measured after 60 days post compound application (reference value: 88.2 nematodes in 100 cm3 soil); assay type: functional
[9] = system: Meloidogyne incognita; experiment: Nematicidal activity against Meloidogyne incognita (root-knot nematode) in ginger crop fields assessed as number of nematodes per 100 cm3 soil at 120 L/ha measured after 60 days post compound application (reference value: 88.2 nematodes in 100 cm3 soil); assay type: functional
[10] = system: Meloidogyne incognita; experiment: Nematicidal activity against Meloidogyne incognita (root-knot nematode) in ginger crop fields assessed as number of nematodes per 100 cm3 soil at 180 L/ha measured after 60 days post compound application (reference value: 88.2 nematodes in 100 cm3 soil); assay type: functional
[11] = system: Meloidogyne incognita; experiment: Nematicidal activity against Meloidogyne incognita (root-knot nematode) in ginger crop fields assessed as number of nematodes per 100 cm3 soil at 90 L/ha measured after 40 days post compound application (reference value: 75.3 nematodes in 100 cm3 soil); assay type: functional
[12] = system: Meloidogyne incognita; experiment: Nematicidal activity against Meloidogyne incognita (root-knot nematode) in ginger crop fields assessed as number of nematodes per 100 cm3 soil at 120 L/ha measured after 40 days post compound application (reference value: 75.3 nematodes in 100 cm3 soil); assay type: functional
[13] = system: Zingiber officinale; experiment: Increase in stem diameter of Zingiber officinale (ginger) plants at 120 L/ha applied through fumigation protocol (reference value: 11.3 mm); assay type: functional
[14] = system: Zingiber officinale; experiment: Increase in stem diameter of Zingiber officinale (ginger) plants at 180 L/ha applied through fumigation protocol (reference value: 11.3 mm); assay type: functional
[15] = system: Ralstonia solanacearum; experiment: Antimicrobial activity against Ralstonia solanacearum in ginger plants fields assessed as reduction in ginger blast-induced plant mortality at 120 to 180 L/ha applied through fumigation protocol; assay type: functional, organism-based
[16] = system: Meloidogyne incognita; experiment: Nematicidal activity against Meloidogyne incognita (root-knot nematode) in ginger crop fields assessed as number of nematodes per 100 cm3 soil at 180 L/ha measured after 40 days post compound application (reference value: 75.3 nematodes in 100 cm3 soil); assay type: functional
[17] = system: Meloidogyne incognita; experiment: Nematicidal activity against Meloidogyne incognita (root-knot nematode) in ginger crop fields assessed as number of nematodes per 100 cm3 soil at 90 L/ha measured after 20 days post compound application (reference value: 56.7 nematodes in 100 cm3 soil); assay type: functional
[18] = system: Meloidogyne incognita; experiment: Nematicidal activity against Meloidogyne incognita (root-knot nematode) in ginger crop fields assessed as number of nematodes per 100 cm3 soil at 120 L/ha measured after 20 days post compound application (reference value: 56.7 nematodes in 100 cm3 soil); assay type: functional
[19] = system: Meloidogyne incognita; experiment: Nematicidal activity against Meloidogyne incognita (root-knot nematode) in ginger crop fields assessed as number of nematodes per 100 cm3 soil at 180 L/ha measured after 20 days post compound application (reference value: 56.7 nematodes in 100 cm3 soil); assay type: functional
[20] = system: Zingiber officinale; experiment: Increase in shoots number of Zingiber officinale (ginger) plants at 90 to 180 L/ha applied through fumigation protocol; assay type: functional, organism-based
[21] = system: Zingiber officinale; experiment: Increase in leaves number of Zingiber officinale (ginger) plants at 90 to 180 L/ha applied through fumigation protocol; assay type: functional, organism-based
[22] = system: Zingiber officinale; experiment: Increase in stem diameter of Zingiber officinale (ginger) plants at 90 L/ha applied through fumigation protocol (reference value: 11.3 mm); assay type: functional
[23] = system: Zingiber officinale; experiment: Increase in medium fruit yield in Zingiber officinale (ginger) plants at 120 L/ha applied through fumigation protocol (reference value: 24.6 ton/ha); assay type: functional
[24] = system: Zingiber officinale; experiment: Increase in medium fruit yield in Zingiber officinale (ginger) plants at 180 L/ha applied through fumigation protocol (reference value: 24.6 ton/ha); assay type: functional
[25] = system: Zingiber officinale; experiment: Increase in large fruit yield in Zingiber officinale (ginger) plants at 90 L/ha applied through fumigation protocol (reference value: 20.1 ton/ha); assay type: functional
[26] = system: Zingiber officinale; experiment: Increase in large fruit yield in Zingiber officinale (ginger) plants at 120 L/ha applied through fumigation protocol (reference value: 20.1 ton/ha); assay type: functional
[27] = system: Zingiber officinale; experiment: Increase in large fruit yield in Zingiber officinale (ginger) plants at 180 L/ha applied through fumigation protocol (reference value: 20.1 ton/ha); assay type: functional
[28] = system: Zingiber officinale; experiment: Increase in extra-large fruit yield in Zingiber officinale (ginger) plants at 90 L/ha applied through fumigation protocol (reference value: 3.5 ton/ha); assay type: functional
[29] = system: Zingiber officinale; experiment: Increase in extra-large fruit yield in Zingiber officinale (ginger) plants at 180 L/ha applied through fumigation protocol (reference value: 3.5 ton/ha); assay type: functional
[30] = system: Capsella bursa-pastoris; experiment: Herbicidal activity against Capsella bursa-pastoris assessed as reduction in weed populations at 90 to 180 L/ha; assay type: functional, organism-based
[31] = system: Digitaria sanguinalis; experiment: Herbicidal activity against Digitaria sanguinalis (hairy crabgrass) assessed as reduction in weed populations at 90 to 180 L/ha; assay type: functional, organism-based
[32] = system: Stellaria media; experiment: Herbicidal activity against Stellaria media assessed as reduction in weed populations at 90 to 180 L/ha; assay type: functional, organism-based
[33] = system: Zingiber officinale; experiment: Increase in plant height of Zingiber officinale (ginger) plants at 90 L/ha applied through fumigation protocol (reference value: 79.6 cm); assay type: functional
[34] = system: Zingiber officinale; experiment: Increase in plant height of Zingiber officinale (ginger) plants at 180 L/ha applied through fumigation protocol (reference value: 79.6 cm); assay type: functional
[35] = system: Zingiber officinale; experiment: Increase in plant height of Zingiber officinale (ginger) plants at 120 L/ha applied through fumigation protocol (reference value: 79.6 cm); assay type: functional
[36] = system: Zingiber officinale; experiment: Increase in marketable fruit yield in Zingiber officinale (ginger) plants at 400 kg/ha applied through fumigation protocol (reference value: 48.2 ton/ha); assay type: functional
[37] = system: Meloidogyne incognita; experiment: Nematicidal activity against Meloidogyne incognita (root-knot nematode) in ginger crop fields assessed as root galling index at 400 kg/ha measured after 60 days post compound application (reference value: 5.49 root galling index); assay type: functional
[38] = system: Meloidogyne incognita; experiment: Nematicidal activity against Meloidogyne incognita (root-knot nematode) in ginger crop fields assessed as number of nematodes per 100 cm3 soil at 400 kg/ha measured after 60 days post compound application (reference value: 88.2 nematodes in 100 cm3 soil); assay type: functional
[39] = system: Digitaria sanguinalis; experiment: Herbicidal activity against Digitaria sanguinalis (hairy crabgrass) assessed as reduction in weed populations at 400 kg/ha; assay type: functional, organism-based
[40] = system: Stellaria media; experiment: Herbicidal activity against Stellaria media assessed as reduction in weed populations at 400 kg/ha; assay type: functional, organism-based
[41] = system: Ralstonia solanacearum; experiment: Antimicrobial activity against Ralstonia solanacearum in ginger plants fields assessed as reduction in ginger blast-induced plant mortality at 400 kg/ha applied through fumigation protocol; assay type: functional, organism-based
[42] = system: Meloidogyne incognita; experiment: Nematicidal activity against Meloidogyne incognita (root-knot nematode) in ginger crop fields assessed as number of nematodes per 100 cm3 soil at 400 kg/ha measured after 40 days post compound application (reference value: 75.3 nematodes in 100 cm3 soil); assay type: functional
[43] = system: Meloidogyne incognita; experiment: Nematicidal activity against Meloidogyne incognita (root-knot nematode) in ginger crop fields assessed as number of nematodes per 100 cm3 soil at 400 kg/ha measured after 20 days post compound application (reference value: 56.7 nematodes in 100 cm3 soil); assay type: functional
[44] = system: Zingiber officinale; experiment: Increase in medium fruit yield in Zingiber officinale (ginger) plants at 400 kg/ha applied through fumigation protocol (reference value: 24.6 ton/ha); assay type: functional
[45] = system: Zingiber officinale; experiment: Increase in large fruit yield in Zingiber officinale (ginger) plants at 400 kg/ha applied through fumigation protocol (reference value: 20.1 ton/ha); assay type: functional
[46] = system: Zingiber officinale; experiment: Increase in extra-large fruit yield in Zingiber officinale (ginger) plants at 400 kg/ha applied through fumigation protocol (reference value: 3.5 ton/ha); assay type: functional
[47] = system: Capsella bursa-pastoris; experiment: Herbicidal activity against Capsella bursa-pastoris assessed as reduction in weed populations at 400 kg/ha; assay type: functional, organism-based
[48] = system: Zingiber officinale; experiment: Increase in plant height of Zingiber officinale (ginger) plants at 400 kg/ha applied through fumigation protocol (reference value: 79.6 cm); assay type: functional
[49] = system: Zingiber officinale; experiment: Increase in stem diameter of Zingiber officinale (ginger) plants at 400 kg/ha applied through fumigation protocol (reference value: 11.3 mm); assay type: functional

For `Cl/C=C/CCl` [1,3-DICHLOROPROPENE], the Crop_yield [1] was 64.7 tons/ha, the Crop_yield [2] was 71.1 tons/ha and the Crop_yield [3] was 75.8 tons/ha. For the same compound, the Crop_yield [4] was 32.4 tons/ha, the Root_galling_index [5] was 3.66 and the Root_galling_index [6] was 3.34. The Root_galling_index [7] was 2.31, the Activity [8] was 58.5 /10'2cm3 and the Activity [9] was 45.5 /10'2cm3. The Activity [10] was 36.9 /10'2cm3, the Activity [11] was 45.1 /10'2cm3 and the Activity [12] was 38.4 /10'2cm3. For the same compound, the Activity [13] was 12.8 mm, the Activity [14] was 13.9 mm and the Activity [15] was “Active”. The Activity [16] was 27.3 /10'2cm3, the Activity [17] was 33.6 /10'2cm3 and the Activity [18] was 24.2 /10'2cm3. The Activity [19] was 17.3 /10'2cm3, the Activity [20] was “Active” and the Activity [21] was “Active”. For the same compound, the Activity [22] was 12.1 mm, the Crop_yield [23] was 36.3 tons/ha and the Crop_yield [24] was 38.2 tons/ha. For the same compound, the Crop_yield [25] was 24.9 tons/ha, the Crop_yield [26] was 26.9 tons/ha and the Crop_yield [27] was 29.5 tons/ha. For the same compound, the Crop_yield [28] was 7.4 tons/ha, the Crop_yield [29] was 8.1 tons/ha and the Activity [30] was “inactive”. The Activity [31] was “inactive”, the Activity [32] was “inactive” and the Activity [33] was 82.6 cm. For the same compound, the Activity [34] was 88.9 cm and the Activity [35] was 85.4 cm.
With `CBr` [BROMOMETHANE] the Crop_yield [36] was 76.4 tons/ha, the Root_galling_index [37] was 2.68 and the Activity [38] was 47.4 /10'2cm3. For the same compound, the Activity [39] was “Active”, the Activity [40] was “Active” and the Activity [41] was “Active”. The Activity [42] was 31.6 /10'2cm3, the Activity [43] was 22.3 /10'2cm3 and the Crop_yield [44] was 39.1 tons/ha. The Crop_yield [45] was 28.7 tons/ha, the Crop_yield [46] was 8.6 tons/ha and the Activity [47] was “Active”. The Activity [48] was 91.3 cm and the Activity [49] was 13.5 mm.
